Results from US20080153896A1, “Polymorphic Forms of an HMG-CoA Reductase Inhibitor and Uses Thereof” (priority 2006, published 2008).

Assay: Stability (integrity) testing of amorphous and polymorphic form under storage conditions, RP-HPLC
Type: physicochemical
Set-up: Impurity RRT 1.104 / Impurity RRT 1.698: unit not given beside the values
Experimental: The integrity of the different forms of the (3R, 5R)-7-[2-(4-fluorophenyl)-5-isopropyl-3-phenyl-4-[(4-hydroxymethylphenylamino)carbonyl]-pyrrol-1-yl]-3,5-dihydroxy-heptanoic acid, hemi calcium salt, was tested under different atmospheric conditions to determine the stability of the amorphous and polymorphic form of the drug in various storage environments. Reversed Phase-HPLC (RP-HPLC) was used to separate (3R, 5R)-7-[2-(4-fluorophenyl)-5-isopropyl-3-phenyl-4-[(4-hydroxymethylphenylamino)carbonyl]-pyrrol-1-yl]-3,5-dihydroxy-heptanoic acid, hemi calcium salt, from smaller molecules representing breakdown products as well as oxidized drug. The relative amount of the drug was reported as a percent of total absorption by UV. The total peak area of all UV absorption impurities was used to define total impurity of the drug. Impurities are defined by their relative retention time (RRT) compared to native drug. Samples were injected onto a C18 column using standard temperature, gradient and run-time conditions.
The results of this integrity testing for the amorphous form of (3R, 5R)-7-[2-(4-fluorophenyl)-5-isopropyl-3-phenyl-4-[(4-hydroxymethylphenylamino)carbonyl]-pyrrol-1-yl]-3,5-dihydroxy-heptanoic acid, hemi calcium salt, is shown in Table 5.
Three separate batches of polymorphic Form I of (3R, 5R)-7-[2-(4-fluorophenyl)-5-isopropyl-3-phenyl-4-[(4-hydroxymethylphenylamino)carbonyl]-pyrrol-1-yl]-3,5-dihydroxy-heptanoic acid, hemi calcium salt, were prepared and tested under the same atmospheric conditions described for the amorphous form.

[1] = 25° C./60% RH 12M, hemi calcium salt
[2] = 30° C./65% RH 1M, hemi calcium salt
[3] = 30° C./65% RH 2M, hemi calcium salt
[4] = 30° C./65% RH 3M, hemi calcium salt
[5] = 30° C./65% RH 6M, hemi calcium salt
[6] = 30° C./65% RH 9M, hemi calcium salt
[7] = 30° C./65% RH 12M, hemi calcium salt
[8] = 40° C./75% RH 1M, hemi calcium salt
[9] = 40° C./75% RH 2M, hemi calcium salt
[10] = 40° C./75% RH 3M, hemi calcium salt
[11] = 40° C./75% RH 6M, hemi calcium salt
[12] = Initial, listed as Batch 2 of Polymorphic Form I, hemi calcium salt

Compound: CC(C)c1c(C(=O)Nc2ccc(CO)cc2)c(-c2ccccc2)c(-c2ccc(F)cc2)n1CC[C@@H](O)C[C@@H](O)CC(=O)[O-].CC(C)c1c(C(=O)Nc2ccc(CO)cc2)c(-c2ccccc2)c(-c2ccc(F)cc2)n1CC[C@@H](O)C[C@@H](O)CC(=O)[O-].[Ca+2] [PP00105, (3R, 5R)-7-[2-(4-fluorophenyl)-5-isopropyl-3-phenyl-4-[(4-hydroxymethylphenylamino)carbonyl]-pyrrol-1-yl]-3,5-dihydroxy-heptanoic acid, hemi calcium salt]
- Impurity RRT 1.439 (25° C./60% RH 12M): 0.152
- Impurity RRT 1.596 (25° C./60% RH 12M): 0.046
- Impurity RRT 1.698 (25° C./60% RH 12M): 0.053
- Assay [1]: 98.25 % W/W
- Highest Impurity [1]: 0.407
- Impurity RRT 0.935 [1]: 0.365
- Impurity RRT 1.045 [1]: 0.407
- Impurity RRT 1.640 [1]: 0.052
- Total Impurity [1]: 1.522
- Water [1]: 5.02 % W/W
- Description (30° C./65% RH 1M): White
- Impurity RRT 1.096 (30° C./65% RH 1M): 0.24
- Impurity RRT 1.439 (30° C./65% RH 1M): 0.151
- Impurity RRT 1.596 (30° C./65% RH 1M): 0.076
- Impurity RRT 1.698 (30° C./65% RH 1M): 0.065
- Water (30° C./65% RH 1M): 4.16 % W/W
- Assay [2]: 98.23 % W/W
- Highest Impurity [2]: 0.444
- Impurity RRT 0.935 [2]: 0.396
- Impurity RRT 1.045 [2]: 0.444
- Impurity RRT 1.64 [2]: 0.06
- Total Impurity [2]: 1.44
- Description (30° C./65% RH 2M): White
- Impurity RRT 1.096 (30° C./65% RH 2M): 0.242
- Impurity RRT 1.183 (30° C./65% RH 2M): 0.063
- Impurity RRT 1.439 (30° C./65% RH 2M): 0.165
- Impurity RRT 1.596 (30° C./65% RH 2M): 0.074
- Impurity RRT 1.698 (30° C./65% RH 2M): 0.069
- Assay [3]: 98.20 % W/W
- Highest Impurity [3]: 0.449
- Impurity RRT 0.935 [3]: 0.411
- Impurity RRT 1.045 [3]: 0.449
- Impurity RRT 1.64 [3]: 0.063
- Total Impurity [3]: 1.54
- Water [3]: 4.16 % W/W
- Description (30° C./65% RH 3M): White
- Impurity RRT 1.096 (30° C./65% RH 3M): 0.229
- Impurity RRT 1.439 (30° C./65% RH 3M): 0.158
- Impurity RRT 1.596 (30° C./65% RH 3M): 0.074
- Impurity RRT 1.698 (30° C./65% RH 3M): 0.062
- Assay [4]: 98.14 % W/W
- Highest Impurity [4]: 0.437
- Impurity RRT 0.935 [4]: 0.399
- Impurity RRT 1.045 [4]: 0.437
- Impurity RRT 1.64 [4]: 0.058
- Total Impurity [4]: 1.42
- Water [4]: 5.02 % W/W
- Description (30° C./65% RH 6M): White
- Impurity RRT 1.096 (30° C./65% RH 6M): 0.218
- Impurity RRT 1.439 (30° C./65% RH 6M): 0.156
- Impurity RRT 1.596 (30° C./65% RH 6M): 0.070
- Impurity RRT 1.698 (30° C./65% RH 6M): 0.063
- Assay [5]: 98.09 % W/W
- Highest Impurity [5]: 0.460
- Impurity RRT 0.935 [5]: 0.409
- Impurity RRT 1.045 [5]: 0.460
- Impurity RRT 1.640 [5]: 0.054
- Total Impurity [5]: 1.430
- Water [5]: 4.96 % W/W
- Description (30° C./65% RH 9M): White
- Impurity RRT 1.096 (30° C./65% RH 9M): 0.232
- Impurity RRT 1.183 (30° C./65% RH 9M): 0.036
- Impurity RRT 1.439 (30° C./65% RH 9M): 0.182
- Impurity RRT 1.596 (30° C./65% RH 9M): 0.053
- Impurity RRT 1.698 (30° C./65% RH 9M): 0.048
- Assay [6]: 98.07 % W/W
- Highest Impurity [6]: 0.442
- Impurity RRT 0.935 [6]: 0.404
- Impurity RRT 1.045 [6]: 0.442
- Impurity RRT 1.640 [6]: 0.058
- Total Impurity [6]: 1.455
- Water [6]: 5.10 % W/W
- Description (30° C./65% RH 12M): White
- Impurity RRT 0.138 (30° C./65% RH 12M): 0.200
- Impurity RRT 1.096 (30° C./65% RH 12M): 0.192
- Impurity RRT 1.183 (30° C./65% RH 12M): 0.048
- Impurity RRT 1.439 (30° C./65% RH 12M): 0.163
- Impurity RRT 1.596 (30° C./65% RH 12M): 0.065
- Impurity RRT 1.698 (30° C./65% RH 12M): 0.045
- Assay [7]: 98.35 % W/W
- Highest Impurity [7]: 0.399
- Impurity RRT 0.935 [7]: 0.399
- Impurity RRT 1.045 [7]: 0.360
- Impurity RRT 1.640 [7]: 0.048
- Total Impurity [7]: 1.520
- Water [7]: 4.87 % W/W
- Description (40° C./75% RH 1M): White
- Impurity RRT 1.096 (40° C./75% RH 1M): 0.244
- Impurity RRT 1.439 (40° C./75% RH 1M): 0.153
- Impurity RRT 1.596 (40° C./75% RH 1M): 0.080
- Impurity RRT 1.698 (40° C./75% RH 1M): 0.062
- Assay [8]: 98.15 % W/W
- Highest Impurity [8]: 0.444
- Impurity RRT 0.935 [8]: 0.404
- Impurity RRT 1.045 [8]: 0.444
- Impurity RRT 1.64 [8]: 0.061
- Total Impurity [8]: 1.45
- Water [8]: 4.71 % W/W
- Description (40° C./75% RH 2M): White
- Impurity RRT 1.096 (40° C./75% RH 2M): 0.234
- Impurity RRT 1.183 (40° C./75% RH 2M): 0.072
- Impurity RRT 1.439 (40° C./75% RH 2M): 0.175
- Impurity RRT 1.596 (40° C./75% RH 2M): 0.079
- Impurity RRT 1.698 (40° C./75% RH 2M): 0.065
- Assay [9]: 98.19 % W/W
- Highest Impurity [9]: 0.457
- Impurity RRT 0.935 [9]: 0.416
- Impurity RRT 1.045 [9]: 0.457
- Impurity RRT 1.64 [9]: 0.066
- Total Impurity [9]: 1.56
- Water [9]: 4.35 % W/W
- Description (40° C./75% RH 3M): White
- Impurity RRT 1.096 (40° C./75% RH 3M): 0.229
- Impurity RRT 1.439 (40° C./75% RH 3M): 0.165
- Impurity RRT 1.596 (40° C./75% RH 3M): 0.078
- Impurity RRT 1.698 (40° C./75% RH 3M): 0.06
- Assay [10]: 98.09 % W/W
- Highest Impurity [10]: 0.442
- Impurity RRT 0.935 [10]: 0.413
- Impurity RRT 1.045 [10]: 0.442
- Impurity RRT 1.64 [10]: 0.056
- Total Impurity [10]: 1.44
- Water [10]: 4.45 % W/W
- Description (40° C./75% RH 6M): White
- Impurity RRT 0.138 (40° C./75% RH 6M): 0.270
- Impurity RRT 1.096 (40° C./75% RH 6M): 0.217
- Impurity RRT 1.439 (40° C./75% RH 6M): 0.146
- Impurity RRT 1.596 (40° C./75% RH 6M): 0.073
- Impurity RRT 1.698 (40° C./75% RH 6M): 0.052
- Assay [11]: 98.14 % W/W
- Highest Impurity [11]: 0.410
- Impurity RRT 0.935 [11]: 0.377
- Impurity RRT 1.045 [11]: 0.410
- Impurity RRT 1.640 [11]: 0.045
- Total Impurity [11]: 1.590
- Water [11]: 5.45 % W/W
- Description (Initial): White
- Impurity RRT 1.096 (Initial): 0.229
- Impurity RRT 1.439 (Initial): 0.168
- Impurity RRT 1.596 (Initial): 0.075
- Impurity RRT 1.698 (Initial): 0.062
- Assay [12]: 98.45 % W/W
- Highest Impurity [12]: 0.457
- Impurity RRT 0.935 [12]: 0.413
- Impurity RRT 1.045 [12]: 0.457
- Impurity RRT 1.64 [12]: 0.057
- Total Impurity [12]: 1.46
- Water [12]: 4.92 % W/W
